In ChEMBL document CHEMBL1201862, “PubChem BioAssay data set” (2004):
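Values below derive from 48-hour exposures of cells grown in 96-well plates, with endpoints linearly interpolated between the two concentrations bracketing the appropriate inhibition level. At the GI50, growth is halved.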 Active and inactive are the calls of the source. No stated cut-off is given here; in the data, active = GI50 up to about 1.1 µM and inactive = higher.

Tests used:
Assay in all cases: NCI anticancer screen, dose series, 48 h
[1] = tested on: KM12
[2] = tested on: SNB-19
[3] = tested on: NCI-H226
[4] = tested on: COLO 205
[5] = tested on: HCT-15
[6] = tested on: RPMI-8226
[7] = tested on: SF-539
[8] = tested on: SK-MEL-5
[9] = tested on: HOP-92
[10] = tested on: OVCAR-8
[11] = tested on: HCC 2998
[12] = tested on: SN12C
[13] = tested on: CCRF-CEM
[14] = tested on: OVCAR-5
[15] = tested on: A549
[16] = tested on: NCI-H23
[17] = tested on: HOP-62
[18] = tested on: UO-31
[19] = tested on: NCI-H460

Row | Compound | GI50 [1] | GI50 [2] | GI50 [3] | GI50 [4] | GI50 [5] | GI50 [6] | GI50 [7] | GI50 [8] | GI50 [9] | GI50 [10] | GI50 [11] | GI50 [12] | GI50 [13] | GI50 [14] | GI50 [15] | GI50 [16] | GI50 [17] | GI50 [18] | GI50 [19]
1 | COc1ccc2c(c1)C(=O)c1ccc(OC)cc1C2=S | > 100 µM (inactive) | > 100 µM (inactive) | > 100 µM (inactive) | > 100 µM (inactive) | > 100 µM | > 100 µM (inactive) | > 100 µM (inactive) | > 100 µM (inactive) | > 100 µM (inactive) | > 100 µM (inactive) | > 100 µM (inactive) | > 100 µM (inactive) | 25.5 µM (inactive) | > 100 µM (inactive) | > 100 µM (inactive) | > 100 µM (inactive) | > 100 µM (inactive) | > 100 µM (inactive) | 
2 | COC(=O)c1csnn1 | > 100 µM (inactive) | > 100 µM (inactive) | > 100 µM (inactive) | > 100 µM (inactive) | > 100 µM | > 100 µM (inactive) | > 100 µM (inactive) | > 100 µM (inactive) |  | > 100 µM (inactive) | > 100 µM (inactive) | > 100 µM (inactive) | > 100 µM (inactive) |  | > 100 µM (inactive) | > 100 µM (inactive) | > 100 µM (inactive) | > 100 µM (inactive) | > 100 µM (inactive)
3 | N#Cc1nc(Nc2cccc3ccccc23)sc1N | 30.2 µM (inactive) | 38.8 µM (inactive) | 41.8 µM (inactive) | 24.6 µM (inactive) | 29.5 µM | 11.9 µM (inactive) | 23.2 µM (inactive) |  | 21.1 µM (inactive) | 31.4 µM (inactive) | 20.3 µM (inactive) | 14.1 µM (inactive) |  | 68.9 µM (inactive) | 26.5 µM (inactive) | 14 µM (inactive) | 33.3 µM (inactive) | 12.9 µM (inactive) | 35 µM (inactive)
4 | COc1ccc(CC2c3c(cc(OC)c(OC)c3OC)CCN2C)cc1OC (stereo not given) | > 100 µM (inactive) | > 100 µM (inactive) |  |  | > 100 µM | > 100 µM (inactive) | > 100 µM (inactive) | > 100 µM (inactive) |  | > 100 µM (inactive) | > 100 µM (inactive) | > 100 µM (inactive) | > 100 µM (inactive) | > 100 µM (inactive) | > 100 µM (inactive) | > 100 µM (inactive) | > 100 µM (inactive) | > 100 µM (inactive) | > 100 µM (inactive)
5 | CC(=O)NC(CCCNC(=O)NCCCl)C(=O)NCc1ccccc1 (stereo not given) | > 100 µM (inactive) | > 100 µM (inactive) | > 100 µM (inactive) | > 100 µM (inactive) | > 100 µM | > 100 µM (inactive) | > 100 µM (inactive) | > 100 µM (inactive) | > 100 µM (inactive) | > 100 µM (inactive) | > 100 µM (inactive) | > 100 µM (inactive) | > 100 µM (inactive) |  | > 100 µM (inactive) | > 100 µM (inactive) | > 100 µM (inactive) | > 100 µM (inactive) | > 100 µM (inactive)
6 | CN1C/C(=C\C=C\c2ccccc2)C(=O)/C(=C/C=C/c2ccccc2)C1 | > 100 µM (inactive) | 39.6 µM (inactive) | > 100 µM (inactive) | > 100 µM (inactive) | > 100 µM | > 100 µM (inactive) | > 100 µM (inactive) | > 100 µM (inactive) |  | 82.2 µM (inactive) | > 100 µM (inactive) | > 100 µM (inactive) | 35.9 µM (inactive) | > 100 µM (inactive) | > 100 µM (inactive) | > 100 µM (inactive) | > 100 µM (inactive) | > 100 µM (inactive) | > 100 µM (inactive)
7 | O=C(O)c1ccccc1Cc1ccco1 | > 100 µM (inactive) | > 100 µM (inactive) | > 100 µM (inactive) | > 100 µM (inactive) | > 100 µM | > 100 µM (inactive) | > 100 µM (inactive) | > 100 µM (inactive) | > 100 µM (inactive) | > 100 µM (inactive) | > 100 µM (inactive) | > 100 µM (inactive) |  | > 100 µM (inactive) | > 100 µM (inactive) | > 100 µM (inactive) | > 100 µM (inactive) | > 100 µM (inactive) | > 100 µM (inactive)
8 | CCc1cccc(C)c1NS(=O)(=O)c1ccccc1 | > 100 µM (inactive) |  | 24.3 µM (inactive) |  | > 100 µM | > 100 µM (inactive) | > 100 µM (inactive) | > 100 µM (inactive) |  | > 100 µM (inactive) | > 100 µM (inactive) |  | > 100 µM (inactive) | > 100 µM (inactive) | > 100 µM (inactive) | > 100 µM (inactive) | > 100 µM (inactive) | > 100 µM (inactive) | > 100 µM (inactive)
9 | C/C(=N\NC(C)(C)C)c1sc(-c2nc(C)c(/C(C)=N/NC(C)(C)C)s2)nc1C |  | > 100 µM (inactive) | > 100 µM (inactive) | > 100 µM (inactive) | > 100 µM | > 100 µM (inactive) | > 100 µM (inactive) | > 100 µM (inactive) | > 100 µM (inactive) | > 100 µM (inactive) | > 100 µM (inactive) | > 100 µM (inactive) | > 100 µM (inactive) |  | > 100 µM (inactive) | > 100 µM (inactive) |  | > 100 µM (inactive) | 
10 | CCOP(=O)(OCC)/C(C#N)=C/c1ccc[nH]1 | > 100 µM (inactive) | > 100 µM (inactive) | > 100 µM (inactive) | > 100 µM (inactive) | > 100 µM | > 100 µM (inactive) | > 100 µM (inactive) | > 100 µM (inactive) | > 100 µM (inactive) | > 100 µM (inactive) |  | > 100 µM (inactive) | > 100 µM (inactive) | > 100 µM (inactive) | > 100 µM (inactive) | > 100 µM (inactive) | > 100 µM (inactive) | > 100 µM (inactive) | > 100 µM (inactive)
11 | CN(c1ccccc1)C1C(=O)N(c2ccccc2)C1/C=C/c1ccccc1 (stereo not given) | > 100 µM (inactive) | > 100 µM (inactive) | > 100 µM (inactive) | > 100 µM (inactive) |  | > 100 µM (inactive) | > 100 µM (inactive) | > 100 µM (inactive) | > 100 µM (inactive) | > 100 µM (inactive) | > 100 µM (inactive) | > 100 µM (inactive) | > 100 µM (inactive) | > 100 µM (inactive) | > 100 µM (inactive) | > 100 µM (inactive) |  | > 100 µM (inactive) | > 100 µM (inactive)
12 | CN(C)CN(C)c1nc(N(C)C)nc(N(C)C)n1 | > 100 µM (inactive) | > 100 µM (inactive) |  | > 100 µM (inactive) | > 100 µM | > 100 µM (inactive) | > 100 µM (inactive) | > 100 µM (inactive) | > 100 µM (inactive) | > 100 µM (inactive) | > 100 µM (inactive) | > 100 µM (inactive) | > 100 µM (inactive) | > 100 µM (inactive) | > 100 µM (inactive) | > 100 µM (inactive) | > 100 µM (inactive) | > 100 µM (inactive) | > 100 µM (inactive)
13 | CCOC(C[C@H](O)[C@H]1COC(=S)S1)OCC | > 100 µM (inactive) | > 100 µM (inactive) | > 100 µM (inactive) | > 100 µM (inactive) | > 100 µM | > 100 µM (inactive) | > 100 µM (inactive) | > 100 µM (inactive) |  | > 100 µM (inactive) | > 100 µM (inactive) | > 100 µM (inactive) |  |  | > 100 µM (inactive) | > 100 µM (inactive) | > 100 µM (inactive) | > 100 µM (inactive) | > 100 µM (inactive)
14 | O=C(c1ccccc1)[C@H]1Nc2ccc(Cl)cc2C2c3ccccc3CC21 (stereo not given in full) | > 100 µM (inactive) | > 100 µM (inactive) | 36.7 µM (inactive) | 41.1 µM (inactive) | 60 µM | > 100 µM (inactive) | > 100 µM (inactive) | 21.3 µM (inactive) |  | 53.8 µM (inactive) | 19.9 µM (inactive) | 83.2 µM (inactive) |  | > 100 µM (inactive) | 34.6 µM (inactive) | 60.3 µM (inactive) | 46.1 µM (inactive) | > 100 µM (inactive) | 63.5 µM (inactive)
15 | COc1cc(=O)oc(/C=C/CO)c1C | > 100 µM (inactive) | > 100 µM (inactive) | > 100 µM (inactive) | > 100 µM (inactive) |  |  | > 100 µM (inactive) | > 100 µM (inactive) | > 100 µM (inactive) | > 100 µM (inactive) | > 100 µM (inactive) | > 100 µM (inactive) | > 100 µM (inactive) | > 100 µM (inactive) | > 100 µM (inactive) | > 100 µM (inactive) | > 100 µM (inactive) | > 100 µM (inactive) | 
16 | CN1C/C(=C\c2ccco2)c2nc(N)nc(-c3ccco3)c2C1 | 31.5 µM (inactive) | > 100 µM (inactive) | 34.5 µM (inactive) | > 100 µM (inactive) | > 100 µM | 31.7 µM (inactive) | > 100 µM (inactive) | 72.8 µM (inactive) |  | 75.2 µM (inactive) | > 100 µM (inactive) | > 100 µM (inactive) | 74.1 µM (inactive) | > 100 µM (inactive) | > 100 µM (inactive) | > 100 µM (inactive) | > 100 µM (inactive) | > 100 µM (inactive) | > 100 µM (inactive)
17 | Cc1cc2ccccc2c[n+]1CC(=O)CC([O-])(C(F)(F)F)C(F)(F)F |  | > 100 µM (inactive) | > 100 µM (inactive) | > 100 µM (inactive) | > 100 µM | 69.7 µM (inactive) | > 100 µM (inactive) | 50.7 µM (inactive) | 58.1 µM (inactive) | > 100 µM (inactive) | > 100 µM (inactive) | > 100 µM (inactive) | 90.8 µM (inactive) | > 100 µM (inactive) | > 100 µM (inactive) | 87.5 µM (inactive) | > 100 µM (inactive) | > 100 µM (inactive) | > 100 µM (inactive)
